“Also recorded” adds a separate entry of the source. Read-outs that look alike come from different tables or passages of the source. Values belong to the compound of their own block, whether it stands above or below them.
What was measured:
[1] = positive controls, published class; cited from earlier work
[2] = for Permeability, Pe: PAMPA, 5 h, 20 μM
Experimental: (§4) The permeability of compounds was evaluated with the parallel artificial membrane permeation assay (PAMPA) as an in vivo model of passive diffusion across a porous filter coated with a lipid/oil/lipid tri-layer artificial membrane. […] Donor solutions of test compound (300 μL, 20 μM in PBS/MeOH 90:10) were added to each well of the donor plate. 200 μL of PBS/MeOH 90:10 was added to each well of the acceptor plate. The acceptor plate was coupled with the donor plate and incubated for 5 hours at room temperature (RT) without agitation. In each plate, test compound was tested in triplicate. At the end of the incubation, test compound concentration in the initial donor solution, acceptor and the donor wells were determined using LC/MS/MS. Permeability of test compound was calculated based on the formula described in “Analytical Method”.

[3] = target: Vanin-1 (Homo sapiens (Human), UniProt O95497); experiment: VNN1 inhibitor binding assay (Kd, affinity beads, qPCR readout); conditions: read-out: Vanin Affinity (nM), Vanin-1 Binding constants
Experimental: (§1) Test compounds were prepared as 111X stocks in 100% DMSO. Kd values were determined using an 11-point 3-fold compound dilution series with three DMSO control points. […] The compounds were then diluted directly into the assays such that the final concentration of DMSO was 0.9%. All reactions were performed in polypropylene 384-well plate. Each was a final volume of 0.02 ml. […] The beads were then re-suspended in elution buffer (1×PBS, 0.05% Tween 20, 0.5 μM non-biotinylated affinity ligand) and incubated at room temperature with shaking for 30 minutes. The kinase concentration in the eluates was measured by qPCR.
Binding constants were calculated with a standard dose-response curve using the Hill equation:
The Hill Slope was set to −1. Curves were fitted using a non-linear least square fit with the Levenberg-Marquardt algorithm. The binding data is summarized in Table 1 where A is less than 100 nM, B is 100 to 500 nM, and C is greater than 500 nM.
as §1, with “are” for “were”, “is” for “was”, “reactions” for “reactions were”
Binding constants are calculated with a standard dose-response curve using the Hill equation:
The Hill Slope was set to −1. Curves were fitted using a non-linear least square fit with the Levenberg-Marquardt algorithm. The binding data is summarized in Table 4 where A is less than 100 nM, B is 100 to 500 nM, and C is greater than 500 nM.

[4] = test system: TNF-alpha (TNFA), interleukin 6 (IL6), interleukin 1beta (IL1B), MCP1 and interleukin 8 (IL8); experiment: Immune cellular assay, cytokine ELISA multiplex in LPS-treated THP-1 derived macrophages; assay type: cell-based, human; conditions: 1 μM, THP-1 macrophages, 100 ng/mL LPS for 4 or 24 hours
Experimental: The anti-inflammatory properties of the four VNN1 inhibitors (Compound 1, Compound 2, Compound 3, and Compound 80) were evaluated in an immune cellular assay targeting key pro-inflammatory cytokines involved in the pathogenesis of multiple autoimmune disease.
Specifically, THP-1 human monocytes were grown in 6-well plates (RPMI 1640+10% FBS+1% P/S). After washing with PBS the THP-1 cells were differentiated into macrophages using 20 nM of phorbol 12-myristate 13-acetate (PMA) for 24 hrs. Compound 1, Compound 2, Compound 3, and Compound 80 (1 μM) were added into the macrophages, which are incubated for 4 hours before the addition of 100 ng/mL lipopolysaccharide (LPS) for either 4 or 24 hours. Next, the macrophages are collected via centrifugation at 1.2K rpm for 5 min and use their media to evaluate cytokine protein levels by using the Bio-rad Cytokine ELISA multiplex assay (cat. No M5000031YV). The supernatants from macrophages treated only with only LPS+PMA are collected and use as negative controls.
The anti-inflammatory properties of the VNN1 inhibitors Compound 5, Compound 9, Compound 10, Compound 13, Compound 14, Compound 16, Compound 20, Compound 21, Compound 26, Compound 23, and Compound 24 are evaluated using the immune cellular assay outlined in Example 6. Suppression of TNF-alpha (TNFA), interleukin 6 (IL6), interleukin 1beta (IL1B), MCP1 and interleukin 8 (IL8) is determined.

[5] = target: CYP1A2 (Homo sapiens (Human), UniProt P05177); experiment: Cytochrome P450 inhibition assay, substrate cocktail in human liver microsome; assay type: in vitro ADME; conditions: microsomes
Experimental: (§2) Cytochrome P450 inhibition of a drug is a key factor in determining pharmacokinetic drug-drug interactions. The objective of this study is to evaluate the inhibition potential of VNN1 inhibitors on six (6) major human cytochrome P450 enzymes, including CYP1A2, CYP2C8, CYP2C9, CYP2C19, CYP2D6, and CYP3A4. Inhibition was determined by using a substrate cocktail and analyzing the rate of specific metabolites formation. The cytochrome P450 inhibition assay was developed using a cocktail consisting of six (6) probe substrates ethoxy-resorufin (CYP1A2), rosiglitazone (CYP2C8), diclofenac (CYP2C9), S-mephenytoin (CYP2C19), dextromethorphan (CYP2D6), and midazolam (CYP3A4). The cocktail was incubated in human liver microsome with NADPH regenerating system (NRS) in a shaking bath at 37±2° C. The formation of specific metabolites was monitored by LC/MS/MS. Test compound was added to the cocktail-liver microsome mixture at varying concentrations and its effect on cytochrome P450 activity was determined by analyzing the rate of specific metabolite formation. The percent inhibition was calculated and plotted with reference to the concentration, and the IC50 value for inhibition was derived by fitting the data with a standard sigmoidal dose-response equation via MLA “Quest Graph™ ED50 Calculator.” AAT Bioquest, Inc, 17 Sep. 2020, aatbio.com/tools/ed50-calculator. […]. […].
(§3) Inhibition by Cytochrome P450 is determined using a substrate cocktail and analyzing the rate of specific metabolites formation outlined in Example 21. The following structures were tested: Compound 5, Compound 9, Compound 10, Compound 13, Compound 14, Compound 16, Compound 20, Compound 21, Compound 23, Compound 24, and Compound 25.

[6] = target: CYP3A4 (Homo sapiens (Human), UniProt P08684); experiment: as above; assay type: in vitro ADME; conditions: microsomes
Experimental: as §2, §3

[7] = target: CYP2C19 (Homo sapiens (Human), UniProt P33261); experiment: as above; assay type: in vitro ADME; conditions: CYP isozyme 2C19, human liver microsome
Experimental: as §2, §3

[8] = target: CYP2C9 (Homo sapiens (Human), UniProt P11712); experiment: as above; assay type: in vitro ADME; conditions: microsomes
Experimental: as §2, §3

[9] = target: CYP2C8 (Homo sapiens (Human), UniProt P10632); experiment: as above; assay type: in vitro ADME; conditions: microsomes
Experimental: as §2, §3

[10] = target: CYP2D6 (Homo sapiens (Human), UniProt P10635); experiment: as above; assay type: in vitro ADME; conditions: microsomes
Experimental: as §2, §3

[11] = parallel artificial membrane permeation assay (PAMPA); conditions: 20 μM in PBS/MeOH 90:10, 5 hours at room temperature
Experimental: as §4

[12] = test system: TNF-alpha (TNFA); experiment: Cellular assay, TNF-alpha ELISA in LPS-treated THP-1 cells; assay type: cell-based; conditions: 1 μM, THP-1 human monocytes, LPS 50 ng/ml, p<0.05
Experimental: THP-1 cells were grown to confluence and plated in 6-well plates. PMA (25 nM) was added to the medium and replaced with non-PMA containing medium 24 hrs later. ATH compounds (1 μM) or vehicle (0.1% DMSO) were added and allowed to incubate. After 4 hrs LPS (50 ng/ml) was added without replacement of the medium and supernatants were collected after 4 and 24 hrs. Media were placed on ice for cytokine detection using ELISA (Quantikine, R&D Systems).
VNN1 inhibitors Compound 1 and Compound 2 show suppression of TNF-alpha (TNFA) expression after LPS (lipopolysaccharide) treatment, in THP-1 human monocytes (FIG. 3, p<0.05 for both).

[13] = in vitro; conditions: PAMPA
Experimental: as §4

Chain of Vanin-1 (O95497 22-513): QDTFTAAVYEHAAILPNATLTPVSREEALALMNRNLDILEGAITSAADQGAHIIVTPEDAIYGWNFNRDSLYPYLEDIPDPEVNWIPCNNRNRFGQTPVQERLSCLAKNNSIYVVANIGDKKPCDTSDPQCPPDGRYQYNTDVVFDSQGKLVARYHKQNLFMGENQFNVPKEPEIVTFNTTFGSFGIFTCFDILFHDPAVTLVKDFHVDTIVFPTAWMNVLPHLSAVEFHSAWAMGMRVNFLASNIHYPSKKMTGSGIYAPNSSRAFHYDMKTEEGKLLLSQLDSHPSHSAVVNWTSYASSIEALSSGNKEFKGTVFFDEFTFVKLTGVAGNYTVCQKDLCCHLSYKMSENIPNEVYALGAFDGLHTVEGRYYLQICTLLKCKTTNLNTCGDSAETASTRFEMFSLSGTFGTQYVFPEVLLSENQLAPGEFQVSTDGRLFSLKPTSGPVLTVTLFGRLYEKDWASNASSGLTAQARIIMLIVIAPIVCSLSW
Chain of CYP2C9 (P11712 whole entry): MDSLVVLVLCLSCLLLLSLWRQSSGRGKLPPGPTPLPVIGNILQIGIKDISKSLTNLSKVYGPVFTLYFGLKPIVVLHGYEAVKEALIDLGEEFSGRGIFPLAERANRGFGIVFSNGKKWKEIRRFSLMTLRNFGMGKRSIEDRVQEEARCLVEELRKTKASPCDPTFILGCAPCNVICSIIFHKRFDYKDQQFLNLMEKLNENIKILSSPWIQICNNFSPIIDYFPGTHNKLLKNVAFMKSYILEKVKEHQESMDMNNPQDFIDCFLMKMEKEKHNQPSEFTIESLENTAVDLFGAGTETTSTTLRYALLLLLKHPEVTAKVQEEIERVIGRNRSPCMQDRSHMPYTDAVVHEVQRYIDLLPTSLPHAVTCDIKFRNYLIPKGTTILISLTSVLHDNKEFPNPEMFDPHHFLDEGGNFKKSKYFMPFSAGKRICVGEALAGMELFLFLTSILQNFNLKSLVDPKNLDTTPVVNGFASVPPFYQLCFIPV
Chain of CYP3A4 (P08684 whole entry): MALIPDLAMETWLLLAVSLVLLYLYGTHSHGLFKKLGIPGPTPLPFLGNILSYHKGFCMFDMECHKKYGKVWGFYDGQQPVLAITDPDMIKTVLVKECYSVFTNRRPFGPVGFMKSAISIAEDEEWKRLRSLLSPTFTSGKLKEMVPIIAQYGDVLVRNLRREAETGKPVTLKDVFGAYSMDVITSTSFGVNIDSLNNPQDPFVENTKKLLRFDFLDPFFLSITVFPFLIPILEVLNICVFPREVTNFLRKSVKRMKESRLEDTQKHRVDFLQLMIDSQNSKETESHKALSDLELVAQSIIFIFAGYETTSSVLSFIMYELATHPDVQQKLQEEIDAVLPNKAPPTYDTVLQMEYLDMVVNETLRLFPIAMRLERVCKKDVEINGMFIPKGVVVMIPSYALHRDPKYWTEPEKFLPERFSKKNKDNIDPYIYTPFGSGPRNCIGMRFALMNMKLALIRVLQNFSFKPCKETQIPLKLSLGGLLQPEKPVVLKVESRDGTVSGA
Chain of CYP2C8 (P10632 whole entry): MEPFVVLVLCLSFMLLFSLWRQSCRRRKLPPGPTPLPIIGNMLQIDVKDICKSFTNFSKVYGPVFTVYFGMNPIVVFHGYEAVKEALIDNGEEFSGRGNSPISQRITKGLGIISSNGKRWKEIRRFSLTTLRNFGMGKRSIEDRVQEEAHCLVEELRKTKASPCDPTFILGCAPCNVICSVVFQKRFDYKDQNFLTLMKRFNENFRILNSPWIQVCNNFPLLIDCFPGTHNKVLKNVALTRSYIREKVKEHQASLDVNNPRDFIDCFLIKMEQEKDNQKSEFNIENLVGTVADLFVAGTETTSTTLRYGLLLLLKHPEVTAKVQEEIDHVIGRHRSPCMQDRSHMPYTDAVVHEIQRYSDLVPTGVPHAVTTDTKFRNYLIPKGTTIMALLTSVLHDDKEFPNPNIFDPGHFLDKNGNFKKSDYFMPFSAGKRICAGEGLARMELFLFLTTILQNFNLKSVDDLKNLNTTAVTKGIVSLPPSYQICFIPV
Chain of CYP1A2 (P05177 whole entry): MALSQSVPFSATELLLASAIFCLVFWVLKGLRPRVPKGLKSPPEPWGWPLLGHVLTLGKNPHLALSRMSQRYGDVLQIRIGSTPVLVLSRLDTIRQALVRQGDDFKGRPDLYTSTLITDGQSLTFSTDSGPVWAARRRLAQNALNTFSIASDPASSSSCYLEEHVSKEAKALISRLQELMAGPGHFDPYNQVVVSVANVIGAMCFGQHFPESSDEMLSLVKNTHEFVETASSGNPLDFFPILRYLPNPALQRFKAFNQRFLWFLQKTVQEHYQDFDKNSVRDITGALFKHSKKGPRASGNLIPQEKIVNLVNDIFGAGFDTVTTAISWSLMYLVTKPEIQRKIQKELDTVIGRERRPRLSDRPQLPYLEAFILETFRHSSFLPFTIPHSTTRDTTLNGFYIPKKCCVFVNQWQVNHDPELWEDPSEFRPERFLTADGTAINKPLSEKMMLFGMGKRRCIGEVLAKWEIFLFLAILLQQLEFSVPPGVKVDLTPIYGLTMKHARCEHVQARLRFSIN
Chain of CYP2D6 (P10635 whole entry): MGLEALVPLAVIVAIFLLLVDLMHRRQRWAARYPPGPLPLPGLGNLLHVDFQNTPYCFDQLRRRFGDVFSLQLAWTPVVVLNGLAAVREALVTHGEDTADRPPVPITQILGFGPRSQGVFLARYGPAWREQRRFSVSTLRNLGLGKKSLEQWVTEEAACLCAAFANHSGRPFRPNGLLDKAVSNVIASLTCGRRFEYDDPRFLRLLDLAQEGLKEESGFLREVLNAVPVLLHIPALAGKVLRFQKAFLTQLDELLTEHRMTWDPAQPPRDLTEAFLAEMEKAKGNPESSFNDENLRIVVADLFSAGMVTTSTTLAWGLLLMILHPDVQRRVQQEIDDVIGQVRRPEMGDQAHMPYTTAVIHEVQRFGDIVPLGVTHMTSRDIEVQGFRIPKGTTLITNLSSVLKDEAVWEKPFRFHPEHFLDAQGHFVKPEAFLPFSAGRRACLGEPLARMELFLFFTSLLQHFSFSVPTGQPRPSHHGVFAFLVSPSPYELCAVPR
Chain of CYP2C19 (P33261 whole entry): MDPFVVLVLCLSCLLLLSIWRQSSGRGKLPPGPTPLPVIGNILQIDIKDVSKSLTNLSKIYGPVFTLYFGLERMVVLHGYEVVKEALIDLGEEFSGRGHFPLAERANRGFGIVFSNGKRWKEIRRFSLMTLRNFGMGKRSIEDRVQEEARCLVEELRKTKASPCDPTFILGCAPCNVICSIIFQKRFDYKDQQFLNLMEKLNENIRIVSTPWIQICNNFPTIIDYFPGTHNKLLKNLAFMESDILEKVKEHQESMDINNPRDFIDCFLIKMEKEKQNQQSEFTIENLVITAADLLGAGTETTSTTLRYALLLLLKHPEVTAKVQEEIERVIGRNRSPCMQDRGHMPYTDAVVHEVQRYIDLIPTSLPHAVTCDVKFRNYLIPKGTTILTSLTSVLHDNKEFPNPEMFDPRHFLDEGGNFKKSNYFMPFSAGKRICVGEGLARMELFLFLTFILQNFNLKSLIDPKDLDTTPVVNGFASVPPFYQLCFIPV

Permeability, Pe [2]: 10.9 ×10⁻⁶ cm/s
SMILES: O=C(O)Cc1ccccc1Nc1c(Cl)cccc1Cl [Diclofenac]
published permeability [1]: high

Kd [3]: < 100 nM
SMILES: CC(=O)N(C)[C@@H]1CCN(C(=O)c2cc(C(=O)c3ccccc3F)cn2C)C1 [Compound 78, (R)—N-(1-(4-(2-fluorobenzoyl)-1-methyl-1H-pyrrole-2-carbonyl)pyrrolidin-3-yl)-N-methylacetamide]

Kd [3]: > 500 nM
SMILES: O=C(c1ccn(Cc2c(F)cccc2F)c1)C(Cc1c(F)cccc1F)c1ccccc1 (stereo not shown) [Compound 3, 1-(1-(2,6-difluorobenzyl)-1H-pyrrol-3-yl)-3-(2,6-difluorophenyl)-2-phenylpropan-1-one]
activity against IL6, TNFA and MCP1 [4]: highly potent activity

Kd [3]: < 100 nM
SMILES: Cn1cc(C(=O)c2ccccc2F)cc1C(=O)N1CCC2(CCOCC2)C1 [Compound 77, (4-(2-fluorobenzoyl)-1-methyl-1H-pyrrol-2-yl) (8-oxa-2-azaspiro[4.5]decan-2-yl) methanone]

Kd [3]: < 100 nM
SMILES: Cn1c(C(=O)c2ccccc2F)ccc1C(=O)N1CCC2(CCOCC2)C1 [Compound 33, (5-(2-fluorobenzoyl)-1-methyl-1H-pyrrol-2-yl) (8-oxa-2-azaspiro[4.5]decan-2-yl) methanone]

Kd [3]: < 100 nM
SMILES: Cn1c(C(=O)NC(C)(C)C)ccc1C(=O)c1ccccc1F [Compound 43, N-(tert-butyl)-5-(2-fluorobenzoyl)-1-methyl-1H-pyrrole-2-carboxamide]

IC50 [5]: > 100 µM
IC50 [6]: > 100 µM
IC50 [7]: 50.6 µM
IC50 [8]: > 100 µM
IC50 [9]: > 100 µM
IC50 [10]: > 100 µM
Permeability, Pe [11]: 23.6 ×10⁻⁶ cm/s
Kd [3]: 100 to 500 nM
SMILES: O=C(Cc1ccccc1)c1ccn(C(=O)c2ccccc2F)c1 [Compound 1, 1-(1-(2-fluorobenzoyl)-1H-pyrrol-3-yl)-2-phenylethan-1-one]
suppression of TNF-alpha (TNFA) expression after LPS treatment [12]: suppression; also recorded: significantly inhibits
activity against IL6, TNFA and MCP1 [4]: highly potent activity

Kd [3]: > 500 nM
SMILES: O=C(Cc1ccccc1)c1c[nH]c(C(=O)c2ccccc2F)c1 [Compound 47, 1-(5-(2-fluorobenzoyl)-1H-pyrrol-3-yl)-2-phenylethan-1-one]

Kd [3]: > 500 nM
SMILES: Cn1cc(C(=O)Cc2ccccc2)cc1C(=O)c1ccccc1F [Compound 46, 1-(5-(2-fluorobenzoyl)-1-methyl-1H-pyrrol-3-yl)-2-phenylethan-1-one]

SMILES: O=C(Cc1ccccc1)c1ccn(Cc2c(F)cccc2F)c1 [Compound 2, 1-(1-(2,6-difluorobenzyl)-1H-pyrrol-3-yl)-2-phenylethan-1-one]
IC50 [5]: > 100 µM
IC50 [6]: 73.7 µM
IC50 [7]: 15.3 µM
IC50 [8]: 63.4 µM
IC50 [9]: 65.5 µM
IC50 [10]: 27 µM
suppression of TNF-alpha (TNFA) expression after LPS treatment [12]: suppression; also recorded: significantly inhibits
Permeability, Pe [2]: 13.6 ×10⁻⁶ cm/s
activity against IL6, TNFA and MCP1 [4]: highly potent activity
Kd [3]: 100 to 500 nM

PAMPA permeability Classification [2]: Low/Medium
Papp at 5 h, 20 μM [13]: 0.0392 ×10⁻⁶ cm/s
SMILES: CCN1CCCC1CNC(=O)c1cc(S(N)(=O)=O)ccc1OC (stereo not shown) [Sulpiride]
published permeability [1]: low

Kd [3]: > 500 nM
SMILES: Cn1cc(C(=O)c2ccccc2F)cc1C(=O)O [Compound 76, 4-(2-fluorobenzoyl)-1-methyl-1H-pyrrole-2-carboxylic acid]

Kd [3]: < 100 nM
SMILES: Cn1c(C(=O)Cc2ccccc2)ccc1C(=O)c1ccccc1F [Compound 22, 1-(5-(2-fluorobenzoyl)-1-methyl-1H-pyrrol-2-yl)-2-phenylethan-1-one]

SMILES: Cn1cccc1C(=O)Cc1ccccc1 [Compound 80, 1-(1-methyl-1H-pyrrol-2-yl)-2-phenylethan-1-one]
activity against IL6, TNFA and MCP1 [4]: highly potent activity

Kd [3]: 100 to 500 nM
SMILES: Cn1c(C(=O)Cc2ccccc2)ccc1C(=O)c1ccccn1 [Compound 25, 1-(1-methyl-5-picolinoyl-1H-pyrrol-2-yl)-2-phenylethan-1-one]
